These are literature values, as cited in patent US9955683B2, “Insecticidal apparatus and methods” (priority 2012, dated 2018).

Data set [1] relates to blowfly larvae. To be noted: sheep.
For data set [2] the following is noted: ruminants; excretion mainly via the feces.

For the compound `N#Cc1c(N)nc(NC2CC2)nc1N` [Dicyclanil], in data set [1] (pour-on formulation), the “duration of protection, blowfly control” value was “up to 20 wk”. On to `O=C(NC(=O)c1c(F)cccc1F)Nc1ccc(Cl)cc1` [Diflubenzuron], for which, in data set [1] (emulsifiable concentrate used as a dip or shower, preventive use), the “duration of protection against blowfly strike” value was 12-14 wk. Turning to `Nc1nc(N)nc(NC2CC2)n1` [cyromazine], the “duration for which control of blowfly larvae can be maintained” value in data set [1] (after a single pour-on application) was “up to 13 wk”. In the case of Ivermectin, in data set [2], the “fraction of unaltered molecule excreted in the urine” value is given as below 2%.
